The target of data set [1] is T1, Solute carrier organic anion transporter family member 1B3 (Homo sapiens, UniProt Q9NPD5).
T1 sequence (Q9NPD5 whole entry): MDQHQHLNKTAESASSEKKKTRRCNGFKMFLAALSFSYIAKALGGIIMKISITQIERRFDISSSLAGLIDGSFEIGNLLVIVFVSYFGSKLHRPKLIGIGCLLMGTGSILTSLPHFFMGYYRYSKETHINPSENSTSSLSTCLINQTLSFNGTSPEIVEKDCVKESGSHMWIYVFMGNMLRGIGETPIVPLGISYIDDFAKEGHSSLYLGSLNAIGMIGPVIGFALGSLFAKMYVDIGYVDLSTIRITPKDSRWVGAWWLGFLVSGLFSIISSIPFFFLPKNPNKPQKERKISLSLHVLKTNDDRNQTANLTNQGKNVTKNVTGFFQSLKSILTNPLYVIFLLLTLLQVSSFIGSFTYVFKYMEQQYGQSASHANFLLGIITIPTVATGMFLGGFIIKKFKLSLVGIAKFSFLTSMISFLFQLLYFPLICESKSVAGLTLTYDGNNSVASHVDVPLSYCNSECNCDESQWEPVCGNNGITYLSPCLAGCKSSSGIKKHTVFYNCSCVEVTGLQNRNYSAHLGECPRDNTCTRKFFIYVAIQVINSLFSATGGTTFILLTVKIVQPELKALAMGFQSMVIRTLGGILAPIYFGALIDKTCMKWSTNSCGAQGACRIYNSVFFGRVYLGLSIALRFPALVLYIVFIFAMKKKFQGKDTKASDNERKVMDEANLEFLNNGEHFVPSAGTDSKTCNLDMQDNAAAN
Particulars: chinese hamster, cho, 10 µM.

In data set [2] the target is T2, Solute carrier organic anion transporter family member 1B1 (Homo sapiens, UniProt Q9Y6L6).
T2 sequence (Q9Y6L6 whole entry): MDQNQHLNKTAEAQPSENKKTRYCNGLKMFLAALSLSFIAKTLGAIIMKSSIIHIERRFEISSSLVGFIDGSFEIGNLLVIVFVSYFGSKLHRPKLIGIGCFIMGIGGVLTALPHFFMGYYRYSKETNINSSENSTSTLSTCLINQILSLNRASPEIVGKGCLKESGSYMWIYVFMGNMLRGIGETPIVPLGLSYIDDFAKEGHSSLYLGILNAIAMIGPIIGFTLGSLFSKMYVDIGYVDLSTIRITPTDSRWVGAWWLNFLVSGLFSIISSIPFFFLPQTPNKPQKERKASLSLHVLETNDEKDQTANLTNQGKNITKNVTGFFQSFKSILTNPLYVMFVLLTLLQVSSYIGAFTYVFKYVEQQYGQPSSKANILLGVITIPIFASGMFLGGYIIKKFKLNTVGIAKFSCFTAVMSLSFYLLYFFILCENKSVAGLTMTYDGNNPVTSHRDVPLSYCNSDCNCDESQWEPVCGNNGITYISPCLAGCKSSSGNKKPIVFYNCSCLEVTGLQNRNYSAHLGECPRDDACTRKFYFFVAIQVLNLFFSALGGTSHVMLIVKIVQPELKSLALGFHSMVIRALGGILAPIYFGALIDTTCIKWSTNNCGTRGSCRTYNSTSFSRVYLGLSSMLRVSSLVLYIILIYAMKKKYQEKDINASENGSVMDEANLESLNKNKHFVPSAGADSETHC
Particulars: chinese hamster, cho, 10 µM.

Usually residual activity stands for the signal under treatment as a percentage of the control signal. As to `COc1cc(OC)c(OC)cc1C=O`, the residual activity in data set [1] is given as 59.17%; in data set [2], 48.71%.

Turning to `Cc1ccc(/C(=C\CN2CCCC2)c2ccccn2)cc1.Cl`, the figures for the residual activity in data set [1] and in data set [2] were 76.5% and 83.77%, respectively.

With `NC(Cc1c[nH]cn1)C(=O)Nc1ccc2ccccc2c1` (stereo unspecified), the residual activity in data set [1] was determined as 105.8%; in data set [2] it was 89.48%.

Consider `CN1CCN(CCCN2c3ccccc3Sc3ccc(C(F)(F)F)cc32)CC1.Cl`, for which the residual activity in data set [1] amounted to 70.51%; in data set [2], 146.4%.

For the compound `COC(=O)[C@H](Cc1ccccc1)NC(=O)[C@@H](N)CC(=O)O`, the residual activity was 115% in data set [1] and 85.37% in data set [2].

Turning to `COc1cccc(C=O)c1OC`, the residual activity in data set [1] is reported as 100.4%; in data set [2], 107.3%.

`CC(=O)Oc1cc2c(c(C)c1OC(C)=O)CC1OC13[C@@]2(C)CC[C@@]1(C)C2C[C@](C)(C(=O)O)CC[C@]2(C)CC[C@]31C` (stereo partly specified): the residual activity in data set [1] was determined as 37.72%; in data set [2], 63.61%.

In the case of `N[C@@H](CSCSC[C@H](N)C(=O)O)C(=O)O`, the residual activity in data set [1] turned out to be 96.92%; in data set [2] it was 92.41%.

Regarding `CC1=CC2C(C(C)C)CC[C@@](C)(O)C2CC1` (stereo partly specified), the residual activity is 88.94% in data set [1] and 80.24% in data set [2].

Regarding `C=C[C@@](C)(O)CC[C@H]1C(=C)C[C@H](OC(C)=O)[C@H]2C(C)(C)CCC[C@]12C`, the residual activity in data set [1] worked out at 80.26%; in data set [2] it was 81.97%.

With `C=C1C([C@]2(C)C(CC(=O)OC)[C@@](C)(COC(C)=O)OC(=O)C[C@H]2OC(C)=O)[C@@H](OC=O)[C@@H](OC(=O)C(O)C(C)CC)[C@@]2(C)[C@H](c3ccoc3)CC(=O)C12O` (stereo partly specified), the residual activity in data set [1] came to 54.44%; in data set [2], 28.24%.

As for `NC[C@H]1O[C@H](O[C@H]2[C@H](O[C@@H]3O[C@H](CO)[C@@H](O)[C@H]3O)[C@@H](O)[C@H](N)C[C@@H]2N)[C@H](N)[C@@H](O)[C@@H]1O.O=S(=O)(O)O`, the residual activity in data set [1] stood at 98.01%; in data set [2], 107.3%.

With `CC(=O)Oc1cc2c(c(C)c1OC(C)=O)CC=C1[C@]2(C)CC[C@]2(C)[C@@H]3C[C@](C)(C(=O)O)CC[C@]3(C)CC[C@@]12C`, the residual activity in data set [1] is reported as 13.7%; in data set [2], 47.56%.

For the compound `C[C@@H]1C[C@H]2CC(=O)[C@H]3CCCN4CCCC2[C@]34C1.[O-][Cl+3]([O-])([O-])O` (stereo partly specified), the residual activity in data set [1] is 106.7%; in data set [2], 104.6%.

Turning to `COC(=O)CCC(=O)O[C@H]1CC[C@@]2(C)[C@@H](CC[C@@H]3[C@@H]2C(=O)[C@@H](O)[C@]2(C)C4C(C[C@@H]32)O[C@@]2(CCC(C)CO2)[C@H]4C)C1` (stereo partly specified), the figures for the residual activity in data set [1] and in data set [2] were 83.53% and 131.1%, respectively.

For `C[C@H](C(=O)O)[C@H]1CC[C@H]2[C@@H]3CC=C4C[C@@H](O)CC[C@]4(C)[C@H]3CC[C@]12C`, the values for the residual activity in data set [1] and in data set [2] were 83.58% and 71.16%, respectively.

`CC(C)CCC[C@@H](C)[C@H]1CC[C@H]2[C@@H]3CC[C@H]4CCCC[C@]4(C)[C@H]3CC[C@]12C`: the results for the residual activity in data set [1] and in data set [2] were 103.3% and 88.28%, respectively.

Turning to `CC(C)CCC[C@@H](C)[C@H]1CC[C@H]2C3=CC[C@H]4C[C@@H](O)CC[C@]4(C)[C@H]3CC[C@]12C`, the results for the residual activity in data set [1] and in data set [2] were 99.24% and 85.16%, respectively.

For `COC(=O)C[C@H]1C(C)(C)[C@]2(Cl)O[C@@]34CC2C(=O)[C@]1(C)C3CC[C@]1(C)C4=CC(=O)O[C@H]1c1ccoc1` (stereo partly specified), the residual activity in data set [1] is 88.12%; in data set [2] it was 68.86%.

Take `CC[C@H](/C=C/[C@@H](C)[C@H]1CC[C@H]2[C@@H]3CCC4=CC(=O)CC[C@]4(C)[C@H]3CC[C@]12C)C(C)C`: the residual activity is 88.84% in data set [1] and 89.99% in data set [2].

As to `O=C1CC[C@]23/C=C/C(=O)NCCCCNCCCNC(=O)/C=C\c4ccc(c2c4)O[C@@H]3C1`, the residual activity is reported as 100.4% in data set [1] and 70.42% in data set [2].

Turning to `CC(=O)O[C@H]1CC[C@]2(C)C3=C(CC[C@H]2C1(C)C)[C@]1(C)CC[C@H]([C@H](C)CCC=C(C)C)[C@@]1(C)CC3`, the residual activity in data set [1] turned out to be 93.79%; in data set [2] it was 54.67%.

In the case of `CC(C)c1c(O)ccc2c1CCC1[C@@](C)(C(=O)O)CCC[C@]21C` (stereo partly specified), the residual activity in data set [1] is 80.85%; in data set [2], 61.16%.

Regarding `C=C[C@@](C)(O)CC[C@H]1C(=C)C[C@H](O)[C@H]2C(C)(C)CCC[C@]12C`, the figures for the residual activity in data set [1] and in data set [2] were 78.26% and 48.6%, respectively.

Turning to `CC[C@H](C)[C@@H](NC)C(=O)O`, the values for the residual activity in data set [1] and in data set [2] were 105.9% and 122.8%, respectively.

As to `O[C@@H]1[C@@H](O)[C@@H]2OC[C@@H](O2)[C@H]1O`, the residual activity in data set [1] is 106%; in data set [2], 105.1%.

With `O=c1cccc2n1C[C@@H]1C[C@H]2CN2CCCC[C@H]12.[O-][Cl+3]([O-])([O-])O`, the residual activity is given as 98.01% in data set [1] and 88.32% in data set [2].

As to `CC(=O)OCC(=O)[C@@]1(O)CC[C@H]2[C@@H]3CC[C@H]4CC(OC(C)=O)CC[C@]4(C)[C@H]3C(=O)C[C@@]21C` (stereo partly specified), the values for the residual activity in data set [1] and in data set [2] were 97.61% and 99.36%, respectively.

For `CC(=O)O[C@@H]1CC(=O)[C@]2(C)[C@H]3CC[C@@]4(C)[C@H](c5ccoc5)OC(=O)[C@H]5O[C@]54[C@]3(C)C(=O)C[C@H]2C1(C)C`, the residual activity stood at 97.89% in data set [1] and 80.54% in data set [2].

In the case of `CCC(C)C(=O)O[C@@H]1C[C@]2(C)[C@H](c3ccoc3)OC(=O)CC23OC2(C)OC34[C@H](OC(=O)C(C)C)[C@@]3(O)[C@@H](OC(=O)[C@]5(C)O[C@H]5C)[C@]5(C)C[C@@]3(O)[C@@](C)([C@H]5CC(=O)OC)C14O2` (stereo partly specified), the residual activity in data set [1] is recorded as 0.6163%; in data set [2], -0.3887%.

Consider `C[C@@H]([C@H]1OC(C)(C)[C@@H](O)[C@H]1O)[C@@H]1CC[C@]2(C)C3=CC[C@H]4C(C)(C)C(=O)CC[C@]4(C)[C@H]3CC[C@@]12C`, for which the residual activity in data set [1] is given as 98.76%; in data set [2], 77.68%.

For `CC(=O)O[C@H]1CC[C@]2(C)[C@H]3CC[C@@H]4[C@@H]5CC(C)(C)CC[C@]5(C(=O)O)CC[C@@]4(C)[C@]3(C)CC[C@H]2C1(C)C`, the residual activity is given as 103.7% in data set [1] and 112.3% in data set [2].

Regarding `O=C1CCC[C@@H]2[C@H]3C[C@@H](CN12)[C@@H]1CCCCN1C3.[O-][Cl+3]([O-])([O-])O`, the residual activity in data set [1] worked out at 104.5%; in data set [2], 115.5%.

As to `CN[C@H]1C[C@@H](N)[C@H](O)[C@@H](O[C@@H]2O[C@H](CO)[C@H](O)[C@H]3O[C@@]4(O[C@H]23)O[C@H]([C@H](N)CO)[C@H](O)[C@H](O)[C@H]4O)[C@@H]1O`, the residual activity worked out at 91.81% in data set [1] and 103.7% in data set [2].

With `COc1ccc(/C=C/C(=O)Nc2ccccc2C(=O)O)cc1OC`, the residual activity is recorded as 71.26% in data set [1] and 55.59% in data set [2].

Regarding `CC(=O)c1cc2c(cc1O)OC(C)(C)C=C2`, the values for the residual activity in data set [1] and in data set [2] were 88.13% and 84.54%, respectively.

Take `CO[C@H]1C=C[C@@]23c4cc5c(cc4CN(C[C@@H]2O)[C@H]3C1)OCO5`: the residual activity in data set [1] is listed as 100.9196%; in data set [2], 94.19%.

Turning to `Nc1nc(N)c2nc(-c3ccccc3)c(N)nc2n1`, the residual activity in data set [1] is on record as 69.61%; in data set [2], 78.63%.
